Measured values from ChEMBL document CHEMBL1201862, “PubChem BioAssay data set” (2004).
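Exposure lasted 48 hours, with cells grown in 96-well plates and compounds tested at five concentrations. GI50 = concentration required for 50% inhibition of growth.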 Activity calls are given as the source filed them. Rule as the data show it: active = GI50 up to about 1.1 µM and inactive = higher.

Experiments:
Test in all cases: NCI-60 cell line screen, 48 h
786-0 = tested on: 786-0
BT-549 = tested on: BT-549
CCRF-CEM = tested on: CCRF-CEM
HCT-116 = tested on: HCT-116
HCT-15 = tested on: HCT-15
HL-60 = tested on: HL-60
HT-29 = tested on: HT-29
IGROV-1 = tested on: IGROV-1
K562 = tested on: K562
MDA-MB-435 = tested on: MDA-MB-435
MDA-N = tested on: MDA-N
Malme-3M = tested on: Malme-3M
NCI-H460 = tested on: NCI-H460
OVCAR-3 = tested on: OVCAR-3
OVCAR-5 = tested on: OVCAR-5
SF-295 = tested on: SF-295
SK-MEL-28 = tested on: SK-MEL-28
SNB-19 = tested on: SNB-19
SNB-75 = tested on: SNB-75

Row | SMILES | GI50 (786-0) | GI50 (BT-549) | GI50 (CCRF-CEM) | GI50 (HCT-116) | GI50 (HCT-15) [µM] | GI50 (HL-60) | GI50 (HT-29) | GI50 (IGROV-1) | GI50 (K562) | GI50 (MDA-MB-435) | GI50 (MDA-N) | GI50 (Malme-3M) | GI50 (NCI-H460) | GI50 (OVCAR-3) | GI50 (OVCAR-5) | GI50 (SF-295) | GI50 (SK-MEL-28) | GI50 (SNB-19) | GI50 (SNB-75)
1 | Cc1cc2nc(-c3c(F)cccc3F)n(Cc3c(F)cccc3F)c2cc1C | 17.9 µM (inactive) | 13.2 µM (inactive) | 22.7 µM (inactive) | 12.1 µM (inactive) | 14.4 | 16.3 µM (inactive) | 15.5 µM (inactive) | 14.3 µM (inactive) | 11 µM (inactive) | 14.7 µM (inactive) | 16 µM (inactive) | 27.9 µM (inactive) | 13.6 µM (inactive) | 16.4 µM (inactive) | 16.6 µM (inactive) | 13.4 µM (inactive) | 16.6 µM (inactive) | 19.5 µM (inactive) | 3.37 µM (inactive)
2 | COC(=O)Nc1nc2cc(S(=O)(=O)Nc3ccccn3)ccc2[nH]1 | 49.8 µM (inactive) | 30.9 µM (inactive) | 26.1 µM (inactive) | 49.9 µM (inactive) | 19.8 | 10.8 µM (inactive) | 43.1 µM (inactive) | 27.9 µM (inactive) | 25.7 µM (inactive) | 14.1 µM (inactive) | 20.7 µM (inactive) | 58.5 µM (inactive) | 34.6 µM (inactive) | 32.4 µM (inactive) | > 100 µM (inactive) | 49.7 µM (inactive) | 14.4 µM (inactive) | 64.4 µM (inactive) | 22.6 µM (inactive)
3 | Cc1nc2cc3ccccc3cc2[nH]c1=O | 44.9 µM (inactive) | > 100 µM (inactive) | 51.2 µM (inactive) | > 100 µM (inactive) | 82 | > 100 µM (inactive) | > 100 µM (inactive) | 47.9 µM (inactive) | 38.8 µM (inactive) | > 100 µM (inactive) | > 100 µM (inactive) | > 100 µM (inactive) | 61.1 µM (inactive) | 68.1 µM (inactive) | > 100 µM (inactive) | 91.2 µM (inactive) | > 100 µM (inactive) | 92.3 µM (inactive) | 24.5 µM (inactive)
4 | COc1cc(S(=O)(=O)Nc2nc(-c3ccc(N4C(=O)/C(=C/c5ccccc5[N+](=O)[O-])N=C4c4ccccc4)cc3)cs2)ccc1Cl | > 100 µM (inactive) | 20 µM (inactive) | > 100 µM (inactive) | 74 µM (inactive) | > 100 | 44.3 µM (inactive) | > 100 µM (inactive) | 41.6 µM (inactive) | 61.5 µM (inactive) | 67.1 µM (inactive) | > 100 µM (inactive) | > 100 µM (inactive) | > 100 µM (inactive) | 29.5 µM (inactive) | > 100 µM (inactive) | > 100 µM (inactive) | > 100 µM (inactive) | 89.9 µM (inactive) | > 100 µM (inactive)
5 | CC1=NN(c2ccc(S(=O)(=O)O)cc2)C2(C1)C(Cl)C(=O)N2c1nc2ccccc2s1 (configuration not stated) | > 100 µM (inactive) | > 100 µM (inactive) | > 100 µM (inactive) | > 100 µM (inactive) | > 100 | > 100 µM (inactive) | > 100 µM (inactive) | > 100 µM (inactive) | > 100 µM (inactive) | > 100 µM (inactive) | > 100 µM (inactive) | > 100 µM (inactive) | > 100 µM (inactive) | 68.4 µM (inactive) | > 100 µM (inactive) | > 100 µM (inactive) | > 100 µM (inactive) | > 100 µM (inactive) | > 100 µM (inactive)
6 | O=C(OCc1ccccc1)N1CCNCCNCCN(C(=O)OCc2ccccc2)CCNCC1 | 14.3 µM (inactive) | 60.7 µM (inactive) | 18.8 µM (inactive) | 14 µM (inactive) | 18.7 | 8.2 µM (inactive) | 12.1 µM (inactive) | 32.1 µM (inactive) | 13 µM (inactive) | 16.1 µM (inactive) | 16.2 µM (inactive) | 20.1 µM (inactive) | 21.2 µM (inactive) | 56.9 µM (inactive) | 33.3 µM (inactive) | 16.4 µM (inactive) | 15.3 µM (inactive) | 68.5 µM (inactive) | 21.5 µM (inactive)
7 | CC1(C)CCCCCCC2OC2CCCCCC(C)(C)C1=O (configuration not stated) | 39.3 µM (inactive) | 27.5 µM (inactive) | 28.2 µM (inactive) | 35.8 µM (inactive) | > 89.5 | 22.4 µM (inactive) | 25.9 µM (inactive) | 47.8 µM (inactive) | 30 µM (inactive) | 35.5 µM (inactive) | 35.8 µM (inactive) | > 53.8 µM (inactive) | 36.1 µM (inactive) | 34.1 µM (inactive) | > 62.1 µM (inactive) | 31.2 µM (inactive) | 65.2 µM (inactive) | > 89.3 µM (inactive) | 28 µM (inactive)
8 | CC(C)=CCC[C@@H](C)C1=C(O)C(=O)C(C)=C(Nc2ccccc2)C1=O | 25.3 µM (inactive) | 24.7 µM (inactive) | 1.62 µM (inactive) | 18.1 µM (inactive) | 7.5 | 2.98 µM (inactive) | 31.3 µM (inactive) | 17.8 µM (inactive) | 13.2 µM (inactive) | 27.7 µM (inactive) | 28.4 µM (inactive) | 17.8 µM (inactive) | 13.3 µM (inactive) | 9.2 µM (inactive) | 52.4 µM (inactive) | 5.77 µM (inactive) | 43 µM (inactive) | 31.4 µM (inactive) | 31.5 µM (inactive)
